Results from ChEMBL document CHEMBL1147238, “Komodoquinone A, a novel neuritogenic anthracycline, from marine Streptomyces sp. KS3” (J Nat Prod, 2003).
The source made the active and inactive calls. The rule behind the calls is not given here.

Columns and labels:
N2a [1] = assay: Neuritogenic activity in mouse Neuro2a cells assessed as morphological changes at 3 ug/mL after 24 or 48 hrs; assay type: functional, cell-based
N2a [2] = assay: Neuritogenic activity in mouse Neuro2a cells assessed as morphological changes at 1 ug/mL after 24 or 48 hrs; assay type: functional, cell-based

Compound	Activity (N2a [1])	Activity (N2a [2])
COc1cccc2c1C(=O)c1c(O)c3c(c(O)c1C2=O)C[C@@](O)(C(=O)CO)C[C@@H]3O[C@H]1C[C@H](N)[C@H](O)[C@H](C)O1	inactive	
C[C@@H]1O[C@@H](Oc2cccc3c2C(=O)c2c(O)c4c(c(O)c2C3=O)C[C@](C)(O)C[C@@H]4O)[C@@H](O)[C@H](N(C)C)[C@@H]1O		Active
